Test results reported in PMC3720542, “Population pharmacokinetics of mefloquine, piperaquine and artemether-lumefantrine in Cambodian and Tanzanian malaria patients” (Malaria Journal, 2013).
Read-outs that look alike come from different tables or passages of the source. Marks after values point to notes of the source that are not given here.

Assays:
[1] = cited from earlier work
[2] = Population pharmacokinetic analysis (NONMEM) of piperaquine in Cambodian malaria patients (Pramoy, DHA-PPQ); type: in vivo, human
Description: The third study was performed during July to October 2008 at Pramoy Health Centre, Veal Veng district, Pursat province, Cambodia. A total of 287 suspected malaria cases were screened by microscopy, of whom 82 (29%) were infected with P. falciparum and 50 (17%) with P. vivax (no mixed infections). Children younger than six years of age and pregnant or lactating women were excluded. Three doses of DHA-PPQ (Duo-Cotecxin®, Zhejiang Holley Nanhu Pharmaceutical Co., Ltd, China) were given according to age (as per national guidelines) on three consecutive days (see Table 1). Same follow-up and blood sampling as at Phnom Dék were performed.
Samples of 2 ml of venous blood were collected on an EDTA Vacutainer and kept on ice for no longer than 6 h after withdrawal and then aliquoted into whole blood, plasma and pellet and immediately stored in liquid nitrogen or a –80°C freezer. […] The method was validated according to FDA recommendations, including assessment of extraction yield, matrix effect variability, overall process efficiency, standard addition experiments as well as anti-malarials short- and long-term stability in plasma. […] The laboratory is part of the quality control system of the World-Wide Antimalarial Resistance Network (WWARN).
The pharmacokinetic analysis for each drug taken separately was performed using the NONMEM computer program Version 6 (NM-TRAN version II). It uses mixed (fixed and random) effects regression to estimate population means and variances of the pharmacokinetic parameters and to identify factors that influence them.
One-, two- and three-compartment pharmacokinetic models with first-order absorption, with and without absorption lag times, were compared. Additional one or two-compartments were used for anti-malarials presenting metabolite concentrations (AM and LF). The final parameters estimated were systemic clearance (CL/F), inter-compartmental clearance (Q/F), central volume of distribution (VC/F), peripheral volume of distribution (VP/F) and absorption rate constant (ka). Since no intravenous drug concentration data were available, these parameters represent apparent values. Where available, metabolite data were included into the model and metabolism rate constant from drug compartment to metabolite compartment (k23) and metabolite clearance (CLmet) were also estimated. Owing to identifiability problems, the volume of distribution of the metabolites (VM) DLF and DHA were assumed to equal LF and AM VC, respectively. […] The observed baseline residual plasma concentrations were fitted by estimating a factor (F0) that provided an estimation of the residual doses from previous treatment.
Exponential errors following a log-normal distribution were assumed for the description of inter-patient variability of the pharmacokinetic parameters and were of the form: θi=θ×e^ηj where θi is the individual pharmacokinetic parameter value in the j^th individual, θ is the population parameter estimate, and ηj is the random effect value, which is independently and normally distributed with a mean of 0 and variance ω^2. Proportional and combined proportional-and-additive error models were compared to describe intra-patient (residual) variability for the mother compound, and if available for its metabolite using Cpij(1 + ϵ1ij) + ϵ2ij or Cmij(1 + ϵ3ij) + ϵ4ij, where Cpij are the corresponding predicted i^th drug plasma concentration and Cmij are the predicted metabolite concentration for the j^th individual, and ϵ1ij, ϵ2ij, ϵ3ij, ϵ4ij, are independent normally distributed residual error terms with a mean of zero and a variance of σ^2_1, σ^2_2, σ^2_3, σ^2_4.
The covariate analysis was performed using a stepwise insertion/deletion approach. Visual inspection of the correlation between post hoc individual estimates of the pharmacokinetic parameters and the available covariates was first conducted by graphical exploration. […]

[3] = non-pregnant women, median age 27.5 (18–45) years, n 24, sampling 84 days
[4] = patients, median age 6 (2–10) years, n 236, sampling 42 days
[5] = pregnant women, median age 25 (18–43) years, n 24, sampling 84 days
[6] = bootstrap evaluation, 200 replicates

In the case of `Clc1ccc2c(N3CCN(CCCN4CCN(c5ccnc6cc(Cl)ccc56)CC4)CC3)ccnc2c1` [Piperaquine, piperaquine], the “CL, population estimate for a person of 70 kg” value (“CL … of 70 kg” below) [1, 3] is listed as 92 L/h, the “VSS, population estimate for a person of 70 kg” value (“VSS … of 70 kg” for short) [1, 3] is listed as 58,030 L and the “CL, population estimate” value ([1]; patients, age 3–55 years, n 98, sampling 63 days) is listed as 98^h L/h. For the same molecule, the “VSS, population estimate” value ([1]; patients, age 3–55 years, n 98, sampling 63 days, for a patient with a median body weight of 48 kg) was 61,180^i L, the “CL … of 70 kg” value [1, 4] was 29 L/h and the “VSS … of 70 kg” value [1, 4] was 14,972 L. For the same molecule, the “CL … of 70 kg” value [1, 5] was 90 L/h, the “VSS … of 70 kg” value [1, 5] was 37,030 L and the “F0, bootstrap mean of 200” value [2, 6] was 125 mg. For the same molecule, the “Q, bootstrap mean of 200” value [2, 6] was 126 L/h, the “VP, bootstrap mean of 200” value [2, 6] was 20,053 L and the “ka, bootstrap mean of 200” value [2, 6] was 1.00 h⁻¹. The “σC, bootstrap mean of 200” value ([2]; bootstrap evaluation, 200 replicates, listed as head prints [μmolL^-1]) was 41%, the “IIV (inter-individual variability) of CL” value ([2]; final model) was 45% and the “IIV (inter-individual variability) of VC” value ([2]; final model) was 65%. For the same molecule, the “IIV (inter-individual variability) of VP” value ([2]; final model) was 50%, the “ka (first-order absorption rate constant), population estimate” value ([2]; final model) was 0.93 h⁻¹ and the “F0 (residual amount from the previous treatment), population estimate” value ([2]; final model, baseline) was 123 mg. For the same molecule, the clearance ([2]; human, plasma, oral, present study, 60 patients, sampling 14 days) was 1820 mL/min, the Vd ([2]; human, plasma, oral, present study, 60 patients, sampling 14 days, read-out: VSS, population estimate for a person of 70 kg) was 42800 L and the “residual dose (F0) as percentage of an initial dose” value ([2]; initial dose 480–960 mg) was 12.8–25.6%.
